# Measured values reported in patent US20180087079A1, “METHODS OF USING CELL-CYCLE INHIBITORS TO MODULATE ONE OR MORE PROPERTIES OF A CELL CULTURE” (AMGEN INC., priority 2013, published 2018).
# Key:
# Colo205 = assay: [14C]-thymidine incorporation cell proliferation inhibition assay; format: cell-based; conditions: Homo sapiens, COLO 205, 72 hour incubation
# Procedure, shortened: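 Colo205 cells seeded at 5×10^3 cells/well, incubated overnight, then exposed to serially diluted compound with 0.1 μCi [14C]-thymidine. Isotope incorporation read after 72 h. IC50 from non-linear regression.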
# CHO cells = assay: Initial dosage and time course study: cell viability and growth arrest (Table 4); format: cell-based, Chinese hamster
# Method: In one set of experiments, a cell cycle analysis was performed for various cell cycle inhibitory compounds. Briefly, CHO cells are grown in 24 deep well plate (for example, Corning Axygen deep well plates; Corning, Amsterdam, The Netherlands), using standard cell-culture medium, under conditions promoting growth of the cells (for example 36 degreesC, 5% CO2) in the presence of various cell cycle inhibitors. Samples are collected at various time points, and cell cycle profiles are obtained by propidium iodide (PI) staining followed by fluorescence-activated cell sorting (FACS) analysis. Results for compounds 6-acetyl-8-cyclopentyl-5-methyl-2-((5-(1-piperazinyl)-2-pyridinyl)amino)pyrido[2,3-d][…] (Compound A) and N-(6-(4-(dimethylamino)-1-piperidinyl)-3-pyridazinyl)-9-(trans-4-methylcyclohexyl)-9H-pyrido[4′,3′,:4,5]pyrrolo[2,3-d]pyrimidin-2-amine (Compound B) are shown in Table 1 below.
# Various compounds were tested in an initial dosage and time course study to ascertain their effects on cell viability and growth phase arrest substantially as described previously in Example 1. Compounds were evaluated for effect, or lack thereof, on viability, as well as their ability to cause growth arrest. Compounds that maintained at least 80% cell viability at one or more concentrations for the five day duration of this assay were regarded as having relatively little or no cell cytotoxicity.
# CDK4/Cyclin D1 = molecular target: T1, CDK4/Cyclin D1 (Homo sapiens, UniProt P11802); assay: CDK4 filtration kinase assay; format: biochemical; conditions: CDK4/Cyclin D1, Rb fragment substrate, [33P]-ATP
# T1 construct: purchased Cell Signaling Technology
# Procedure, shortened: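 Radiometric filtration assay: 0.3 μg CDK4/cyclin D1 with 1 μg Rb fragment (aa773-928) and 1 μCi [33P]-ATP in Tris pH 7.4 buffer, 1 h at room temperature. TCA-precipitated protein counted by scintillation; IC50 by non-linear regression.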
# [1] = tested on: mammalian cells such as CHO cells; assay: Predicted specific productivity of recombinant protein for Compound M; format: cell-based, Chinese hamster; conditions: predicted from Table 4, structural similarity, CDK4 assay and cell proliferation assay
# T1 sequence (P11802 whole entry, species assumed, the tested form may be a part): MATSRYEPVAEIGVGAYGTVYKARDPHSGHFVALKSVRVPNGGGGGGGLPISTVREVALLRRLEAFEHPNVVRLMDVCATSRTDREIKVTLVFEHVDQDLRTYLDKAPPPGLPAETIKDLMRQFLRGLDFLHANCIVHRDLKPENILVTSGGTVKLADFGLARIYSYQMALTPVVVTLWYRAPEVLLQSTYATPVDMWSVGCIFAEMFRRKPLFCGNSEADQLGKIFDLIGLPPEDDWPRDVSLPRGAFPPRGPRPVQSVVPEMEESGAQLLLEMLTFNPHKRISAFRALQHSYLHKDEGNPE
# T1 sequence (P24385 whole entry partner, species assumed, the tested form may be a part): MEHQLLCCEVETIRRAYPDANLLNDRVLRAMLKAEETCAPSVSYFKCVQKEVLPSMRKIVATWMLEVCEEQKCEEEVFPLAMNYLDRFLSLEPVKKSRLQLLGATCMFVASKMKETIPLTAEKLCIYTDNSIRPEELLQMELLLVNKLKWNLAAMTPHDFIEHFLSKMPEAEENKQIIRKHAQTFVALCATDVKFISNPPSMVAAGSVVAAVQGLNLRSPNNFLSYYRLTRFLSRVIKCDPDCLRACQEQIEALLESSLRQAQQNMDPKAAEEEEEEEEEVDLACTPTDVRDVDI
structure (smiles),measurement,setting,value
"CC(=O)c1c(C)c2cnc(Nc3ccc(N4CCNCC4)nn3)nc2n(C2CCCC2)c1=O [Compound M, 6-acetyl-8-cyclopentyl-5-methyl-2-((6-(piperazin-1-yl)pyridazin-3-yl)amino)pyrido[2,3-d]pyrimidin-7(8H)-one]",IC50,Colo205,92 nM
same,VCD,"CHO cells; 2.5 microM, D 1",0.4656 e6/mL
same,VCD,"CHO cells; 2.5 microM, D 2",0.6879 e6/mL
same,Viability,"CHO cells; 2.5 microM, D 2",97.90%
same,VCD,"CHO cells; 2.5 microM, D 3",1.1916 e6/mL
same,Viability,"CHO cells; 2.5 microM, D 3",97.65%
same,VCD,"CHO cells; 2.5 microM, D 4",2.1883 e6/mL
same,Viability,"CHO cells; 2.5 microM, D 4",96.47%
same,VCD,"CHO cells; 5 microM, D 1",0.4129 e6/mL
same,VCD,"CHO cells; 5 microM, D 2",0.5439 e6/mL
same,Viability,"CHO cells; 5 microM, D 2",97.90%
same,VCD,"CHO cells; 5 microM, D 3",0.8760 e6/mL
same,Viability,"CHO cells; 5 microM, D 3",97.67%
same,VCD,"CHO cells; 5 microM, D 4",1.4543 e6/mL
same,Viability,"CHO cells; 5 microM, D 4",95.90%
same,VCD,"CHO cells; 10 microM, D 1",0.4204 e6/mL
same,VCD,"CHO cells; 10 microM, D 2",0.4984 e6/mL
same,Viability,"CHO cells; 10 microM, D 2",97.90%
same,VCD,"CHO cells; 10 microM, D 3",0.7601 e6/mL
same,Viability,"CHO cells; 10 microM, D 3",97.06%
same,VCD,"CHO cells; 10 microM, D 4",1.2297 e6/mL
same,Viability,"CHO cells; 10 microM, D 4",95.85%
same,VCD,"CHO cells; 20 microM, D 1",0.3915 e6/mL
same,VCD,"CHO cells; 20 microM, D 2",0.4101 e6/mL
same,Viability,"CHO cells; 20 microM, D 2",97.90%
same,VCD,"CHO cells; 20 microM, D 3",0.5348 e6/mL
same,Viability,"CHO cells; 20 microM, D 3",97.31%
same,VCD,"CHO cells; 20 microM, D 4",0.8023 e6/mL
same,Viability,"CHO cells; 20 microM, D 4",96.04%
same,cytotoxicity and growth arrest properties,CHO cells; compared with Compound A,"very similar, at similar concentrations, to the properties of Compound A"
same,IC50,CDK4/Cyclin D1,15 nM
same,increase in specific productivity (qP) of recombinant protein,[1],> 200%
